US20080004290A1, “Anti-Cancer Agents” (THE UNIVERSITY OF QUEENSLAND, priority 2003, published 2008)
Like-named read-outs stand apart in the source and are kept apart here.

Columns and labels:
Format in all cases: cell-based, human
[1] = test system: NFF, neonatal foreskin fibroblasts; assay: Cell survival assay (clonogenic survival, SRB), normal cells; conditions: Homo sapiens, Fibroblast
Method in brief: (§1)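 Cells (5×10^3/well, RPMI 1640 with 10% FCS) treated 24 h with compound at 0.01-10 μg/mL, then washed and grown 72 h drug-free at 37 °C, 5% CO2. Survival read by SRB staining after methylated-spirit fixation, absorbance 564 nm.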

D14 melanoma cells = assay: Cell survival assay (SRB)
Protocol: (§2) Cell Lines and Culture Medium. All cell lines used in this study have been described previously (Parsons et al., 1986; Todaro et al., 1980; Glenn et al., 2004). All cell lines were cultured in 10% heat-inactivated foetal calf serum (CSL, Australia) in RPMI 1640 medium supplemented with 100 U/mL penicillin, 100 μg/mL streptomycin, and 3 mM HEPES at 5% CO2, 99% humidity at 37° C. Primary human fibroblasts were obtained from neonatal foreskins and cultured in the above medium. Routine mycoplasma tests were performed using Hoechst stain^i and were always negative.
(§3) Cell Survival Assay. Cells were plated into 96-well microtitre plates at 5×10^3 cells/well, and allowed to adhere overnight. Test compounds were added to culture medium at the indicated concentrations, and plates incubated in the above conditions for 24 hours. Following this incubation period, compounds and media were removed, and replaced with fresh culture medium. Cells were then grown for a further 72 hours before assay using sulforhodamine B (SRB; Sigma, St. Louis, Mo.) as previously described. Briefly, the culture medium was removed from the 96-well microtitre plates and the plates washed twice with phosphate buffered saline (PBS), before the cells were fixed with methylated spirits for 15 minutes. The plates were then rinsed with tap water and the fixed cells stained with 50 μL/well of SRB solution (0.4% sulforhodamine B (w/v) in 1% (v/v) acetic acid) over a period of 1 hour. The SRB solution was then removed from the wells and the plates rapidly washed two times with 1% (v/v) acetic acid. Protein bound dye was then solubilised with the addition of 100 μL of 10 mM unbuffered Tris, and incubated for 15 min at 25° C. Plates were then read at 564 nm on a VERSA max tunable microplate reader (Molecular Devices, Sunnyvale, Calif.).

D17 melanoma cells = assay: Cell survival assay (SRB)
Protocol: as §2, §3

MM229 melanoma cells = assay: Cell survival assay (SRB)
Protocol: as §2, §3

HeLa cells = assay: Cell survival assay (SRB)
Protocol: as §2, §3

D11 melanoma cells = assay: Cell survival assay (SRB)
Protocol: as §2, §3

AO7 RM cells = assay: Cell survival assay (SRB)
Protocol: as §2, §3

A2058 cells = assay: Cell survival assay (SRB)
Protocol: as §2, §3

MM329 melanoma cells = assay: Cell survival assay (SRB)
Protocol: as §2, §3

LSP M2 cells = assay: Cell survival assay (SRB)
Protocol: as §2, §3

MM604 melanoma cells = assay: Cell survival assay (SRB)
Protocol: as §2, §3

MM470 melanoma cells = assay: Cell survival assay (SRB)
Protocol: as §2, §3

Mel FH melanoma cells = assay: Cell survival assay (SRB)
Protocol: as §2, §3

Mel RM melanoma cells = assay: Cell survival assay (SRB)
Protocol: as §2, §3

AF-6 cells = assay: Cell survival assay (SRB)
Protocol: as §2, §3

DO4 melanoma cells = assay: Cell survival assay (SRB)
Method in brief: (§4)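 Following overnight adherence, cells are treated with test compounds for 24 hours, then washed free of drug and cultured 72 hours longer. Survival is quantified by sulforhodamine B protein staining read at 564 nm.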

SkMel28 melanoma cells = assay: Cell survival assay (SRB)
Method in brief: as §4

MM96L melanoma cells = assay: Cell survival assay (clonogenic survival, SRB); conditions: for IC50: Homo sapiens, MM96L
Method in brief: as §1

[2] = Homo sapiens, Table 11, antiproliferative potency
[3] = Table 11, IC50 (NFF)/IC50(cancer cell line)

CN(C)c1ccc(C(=O)N[C@@H](CCCCCC(=O)NO)C(=O)NCc2ccccc2)cc1 (racemic) [Example 124]
IC50 ([1]; NFF normal fibroblasts, 24 h with compound, further 72 h growth, SRB, read-out: IC50 (uM) NFF): 0.87 ± 0.07 µM | IC50 ([1]; Table 11, antiproliferative potency, read-out: IC50 (μM) NFF): 0.87 ± 0.07 µM | IC50 (D14 melanoma cells; [2]): 0.26 ± 0.08 µM | Selectivity D14 (D14 melanoma cells; [3]): 3 | IC50 (D17 melanoma cells; Homo sapiens, D17, Table 11, antiproliferative potency): 0.06 ± 0.02 µM | Selectivity D17 (D17 melanoma cells; [3]): 15 | IC50 (MM229 melanoma cells; [2]): 0.6 ± 0.08 µM | Selectivity MM229 (MM229 melanoma cells; [3]): 1.5 | IC50 (HeLa cells; [2]): 0.09 ± 0.01 µM | Selectivity HeLa (HeLa cells; [3]): 10 | IC50 (D11 melanoma cells; [2]): 0.3 ± 0.2 µM | Selectivity D11 (D11 melanoma cells; [3]): 3 | IC50 (AO7 RM cells; [2]): 0.18 ± 0.07 µM | Selectivity AO7 RM (AO7 RM cells; [3]): 5 | IC50 (A2058 cells; Homo sapiens, A2058, Table 11, antiproliferative potency): 0.1 ± 0.02 µM | Selectivity A2058 (A2058 cells; [3]): 9 | IC50 (MM329 melanoma cells; [2]): 0.06 ± 0.04 µM | Selectivity MM329 (MM329 melanoma cells; [3]): 15 | IC50 (LSP M2 cells; [2]): 0.45 ± 0.05 µM | Selectivity LSP M2 (LSP M2 cells; [3]): 2 | IC50 (MM604 melanoma cells; [2]): 0.01 ± 0.01 µM | Selectivity MM604 (MM604 melanoma cells; [3]): 87 | IC50 (MM470 melanoma cells; [2]): 0.09 ± 0.07 µM | Selectivity MM470 (MM470 melanoma cells; [3]): 10 | IC50 (Mel FH melanoma cells; [2]): 0.08 ± 0.04 µM | Selectivity Mel FH (Mel FH melanoma cells; [3]): 11 | IC50 (Mel RM melanoma cells; [2]): 0.95 ± 0.07 µM | Selectivity Mel RM (Mel RM melanoma cells; [3]): 0.9 | IC50 (AF-6 cells; [2]): 0.3 ± 0.03 µM | Selectivity AF-6 (AF-6 cells; [3]): 3 | IC50 (DO4 melanoma cells; Homo sapiens, DO4, Table 11, antiproliferative potency, read-out: IC50 (μM) DO4): 0.12 ± 0.03 µM | Selectivity DO4 (DO4 melanoma cells; [3]): 7 | IC50 (SkMel28 melanoma cells; Homo sapiens, SK-MEL-28, Table 11, antiproliferative potency, read-out: IC50 (μM) SK Mel 28): 0.06 ± 0.04 µM | Selectivity SK Mel 28 (SkMel28 melanoma cells; [3]): 15 | IC50 (MM96L melanoma cells; MM96L melanoma, 24 h with compound, further 72 h growth, SRB, read-out: IC50 (uM) MM96L): 0.13 ± 0.02 µM | IC50 (MM96L melanoma cells; Table 11, antiproliferative potency, read-out: IC50 (μM) MM96L): 0.13 ± 0.02 µM | IC50 (MM96L melanoma cells; most preferred compounds, exemplary examples, read-out: potency of IC50 against the MM96 melanoma cells): ≤ 0.5 µM | SI (Selectivity Index = IC50 (NFF)/IC50 (MM96L)) (MM96L melanoma cells; NFF vs MM96L): 6.7 | Selectivity MM96L (MM96L melanoma cells; [3]): 6.7
